Measurements: patent US20130165368A1, “ANTIMICROBIAL COMPOUNDS” (priority 2010, published 2013)
≈ marks a conversion by molar mass, not a printed value. Like-named read-outs stand apart in the source and are kept apart here.

Experiments:
Assay type in all cases: cell-based
Serratia marcescens = test: MIC agar dilution, micro-organism 5 (10211); details: Serratia marcescens 10211; 48 hrs; read-out: MIC
Method: (§1) Throughout the period of testing the microbial strains were subcultured and incubated for 18-20 hours at 37° C. on a weekly basis. Horse blood agar plates were used to sustain the micro-organisms both prior to and throughout testing. The alkoxylated alkanols listed in Table II below were obtained (these are obtainable from Sigma-Aldrich Company Ltd, Dorset, England), each having a GC purity of at least 97%.
(§2) Molar equivalent concentrations were used to allow comparison between compounds of differing molecular mass. Due to weighing difficulties, any compound in solid form was melted in a water bath prior to dilution. To make ten-times strength concentrations, which takes into account agar dilution, 0.0352 mmol of each compound was weighed into plastic universal bottles and 4 mL of sterile distilled water (SDW) was added. To produce a homogenous emulsion the universals were vortexed; once achieved the emulsions were serial diluted by adding 2 mL to 2 mL of SDW.
(§3) Myristyl alcohol and lauryl alcohol were re-weighed and dissolved in 25 μL of the polar solvent 1-methyl-2-pyrrolidone (M6762; Sigma-Aldrich) in sterile glass universals due to an inability to achieve an even suspension. To maintain an even emulsion in the presence of SDW 37.5 μL of the non-ionic detergent Tween 20 (P1379, Sigma-Aldrich) was also added. 3.9375 mL of SDW was added to these, to create a 4 mL volume; they were vortexed and diluted as before.
(§4) For every 100 mL of Isosensitest agar (IST) (CM0471; Oxoid, Basingstoke, England), 3.1 g of the IST powder was added to 100 mL SDW (as per manufacturer's instructions) and sterilised for 15 minutes at 121° C. Once sterilised, the molten agar was cooled to 50° C. in a water-bath. Subsequently 4.8 g of CCEY powder (BC2160; Bioconnections, Wetherby, England), also known as Brazier's medium, was added to 100 mL SDW for every 100 mL of agar needed. This was then sterilised for 15 minutes at 121° C. Once sterilised the molten agar was cooled to 50° C. in a water-bath and 4 mL of egg-yolk emulsion (S2073; TCS Biosciences Ltd, Buckingham, United Kingdom) and 1 mL of lysed defibrinated horse blood (HB035; TCS Biosciences Ltd, Buckingham, United Kingdom) were also added for every 100 mL needed. Horse blood lysis is achieved by dilution to half concentration with SDW; when fully lysed the mixture will turn dark red in colour.
(§5) 18 mL agar was added to each universal and then poured into sterile Petri dishes. This step creates a 1/10 dilution resulting in agar plates of the required strength. Control plates for each set of strains were created by adding 18 mL of agar to 2 mL of SDW.
(§6) Suspensions of each bacterial species were prepared with a density equal to that of a 0.5 McFarland standard using a densitometer. All suspensions were made using sterile distilled water and fresh 18-20 hour cultures. As a 0.5 McFarland standard contains 1.5×10^8 CFU/mL and the multipoint inoculators applies 1 μL spots of liquid, each bacterial suspension was diluted 1/15 (20 μL suspension to 280 μL sterile distilled water).
(§7) Bacterial suspensions were prepared from fresh 18-24 hour cultures as previously described. 1 μL of each strain was inoculated onto all 100 agar plates containing a different chemical concentration and the 2 control plates. This was done using a multipoint inoculator which inoculates 20 strains per plate. All plates were incubated for 22 hours at 37° C. in aerobic conditions.
(§8) Each plate was examined for bacterial growth after 22 and 48 hours, with each being incubated in between examinations. A positive result was recorded as growth of ≧10 colonies. A negative result was recorded as growth of <10 colonies as this is equivalent to 99.9% inhibition. The lowest concentration of chemical that inhibited growth was recorded as the MIC. The results are recorded in Table IV below, where the numbers are quoted in mmol/L.
(§9) Further experiments have also been conducted to determine the MIC of a number of other compositions as follows. […]

Bacillus subtilis = test: MIC agar dilution, micro-organism 18 (9372); details: Bacillus subtilis 9372, read-out: MIC
Method: as §1, §2, §3, §4, §5, §6, §7
as §8, with “mmol/L. […]” for “mmol/L.”

Salmonella typhimurium = test: MIC agar dilution, micro-organism 6 (74); details: Salmonella enterica; Salmonella typhimurium 74; 48 hrs; read-out: MIC
Method: as §1, §2, §3, §4, §5, §6, §7, §8, §9

Listeria monocytogenes = test: MIC agar dilution, micro-organism 15 (11994); details: Listeria monocytogenes 11994, read-out: MIC
Method: as §1, §2, §3, §4, §5, §6, §7
as §8, with “mmol/L. […]” for “mmol/L.”

Providencia rettgeri = test: MIC agar dilution, micro-organism 3 (7475); details: Providencia rettgeri 7475, read-out: MIC
Method: as §1, §2, §3, §4, §5, §6, §7
as §8, with “mmol/L. […]” for “mmol/L.”

Staphylococcus aureus = test: MIC agar dilution, micro-organism 13 (6571); details: Staphylococcus aureus, Staphylococcus aureus 6571, read-out: MIC
Method: as §1, §2, §3, §4, §5, §6, §7
as §8, with “mmol/L. […]” for “mmol/L.”

[1] = tested on: Staphylococcus aureus (MRSA); test: MIC agar dilution, micro-organism 12 (11939); details: Staphylococcus aureus, MRSA, Staphylococcus aureus (MRSA) 11939, read-out: MIC
Method: as §1, §2, §3, §4, §5, §6, §7
as §8, with “mmol/L. […]” for “mmol/L.”

Candida glabrata = test: MIC agar dilution, micro-organism 20 (3943); details: Nakaseomyces glabratus, Candida glabrata 3943, read-out: MIC
Method: as §1, §2, §3, §4, §5, §6, §7
as §8, with “mmol/L. […]” for “mmol/L.”

Klebsiella pneumoniae = test: MIC agar dilution, micro-organism 2 (9528); details: Klebsiella pneumoniae 9528; 48 hrs; read-out: MIC
Method: as §1, §2, §3, §4, §5, §6, §7, §8, §9

Candida albicans = test: MIC agar dilution, micro-organism 19 (90028); details: Candida albicans 90028, read-out: MIC
Method: as §1, §2, §3, §4, §5, §6, §7
as §8, with “mmol/L. […]” for “mmol/L.”

Enterococcus faecium = test: MIC agar dilution, micro-organism 16 (7171); details: Enterococcus faecium 7171, read-out: MIC
Method: as §1, §2, §3, §4, §5, §6, §7
as §8, with “mmol/L. […]” for “mmol/L.”

Yersinia enterocolitica = test: MIC agar dilution, micro-organism 8 (11176); details: Yersinia enterocolitica 11176; 48 hrs; read-out: MIC
Method: as §1, §2, §3, §4, §5, §6, §7, §8, §9

Enterococcus faecalis = test: MIC agar dilution, micro-organism 17 (775); details: Enterococcus faecalis 775, read-out: MIC
Method: as §1, §2, §3, §4, §5, §6, §7
as §8, with “mmol/L. […]” for “mmol/L.”

Acinetobacter baumannii = test: MIC agar dilution, micro-organism 10 (19606); details: Acinetobacter baumannii 19606; 48 hrs; read-out: MIC
Method: as §1, §2, §3, §4, §5, §6, §7, §8, §9

Steptococcus pyogenes = test: MIC agar dilution, micro-organism 11 (8306); details: Steptococcus pyogenes 8306, read-out: MIC
Method: as §1, §2, §3, §4, §5, §6, §7
as §8, with “mmol/L. […]” for “mmol/L.”

Pseudomonas aeruginosa = test: MIC agar dilution, micro-organism 7 (10662); details: Pseudomonas aeruginosa 10662; 48 hrs; read-out: MIC
Method: as §1, §2, §3, §4, §5, §6, §7, §8, §9

Burkholderia cepacia = test: MIC agar dilution, micro-organism 9 (1222); details: Burkholderia cepacia 1222; 48 hrs; read-out: MIC
Method: as §1, §2, §3, §4, §5, §6, §7, §8, §9

Escherichia coli = test: MIC agar dilution, micro-organism 1 (10418); details: Escherichia coli 10418, read-out: MIC
Method: as §1, §2, §3, §4, §5, §6, §7
as §8, with “mmol/L. […]” for “mmol/L.”

[2] = tested on: Staphylococcus epidermidis; test: MIC agar dilution, micro-organism 14 (11047); details: Staphylococcus epidermidis 11047, read-out: MIC
Method: as §1, §2, §3, §4, §5, §6, §7
as §8, with “mmol/L. […]” for “mmol/L.”

Enterobacter cloacae = test: MIC agar dilution, micro-organism 4 (11936); details: Enterobacter cloacae 11936; 48 hrs; read-out: MIC
Method: as §1, §2, §3, §4, §5, §6, §7, §8, §9

[3] = tested on: Gram negative bacteria, Gram positive bacteria and pathogenic yeasts; test: MIC agar dilution, summary statements over the micro-organisms tested (Tables I, IX); details: over the micro-organisms tested or some of them; read-out: MIC
Description: For a better understanding, the present invention will now be more particularly described, by way of non-limiting example only, as follows. The micro-organisms shown in Table I overleaf were acquired from the National Collection of Type Cultures (NCTC), Colindale, United Kingdom; the American Type Culture Collection (ATCC), Manassas, United States and the National Collection of Pathogenic Fungi (NCPF), Colindale, United Kingdom. They include Gram negative bacteria, Gram positive bacteria and pathogenic yeasts.
as §1, §2, §3, §4, §5, §6
as §7, with “conditions. […]” for “conditions.”

Compound	MIC (Bacillus subtilis; 48 hrs)	MIC (Listeria monocytogenes; 48 hrs)	MIC (Providencia rettgeri; 48 hrs)	MIC (Staphylococcus aureus; 48 h, 48 hrs)	MIC ([1]; 48 h, 48 hrs)	MIC (Candida glabrata; 48 h, 48 hrs)	MIC (Candida albicans; 48 hrs)	MIC (Enterococcus faecium; 48 hrs)	MIC (Enterococcus faecalis; 48 hrs)	MIC (Steptococcus pyogenes; 48 h, 48 hrs)	MIC (Escherichia coli; 48 hrs)	MIC ([2]; 48 hrs)	MIC (Bacillus subtilis; 22 hrs)	MIC (Listeria monocytogenes; 22 hrs)	MIC (Providencia rettgeri; 22 hrs)	MIC (Staphylococcus aureus; 22 h, 22 hrs)	MIC ([1]; 22 h, 22 hrs)	MIC (Candida glabrata; 22 h, 22 hrs)	MIC (Candida albicans; 22 hrs)	MIC (Enterococcus faecium; 22 hrs)	further results
CCCCCCCCCCCCOCC(C)O (racemic) [PG1, 1-methyl-3-oxapentadecanol]	> 880 µM	> 880 µM	880 µM (≈ 215 µg/mL)	> 880 µM	880 µM (≈ 215 µg/mL)	> 880 µM	> 880 µM	> 880 µM	> 880 µM	> 880 µM	> 880 µM	> 880 µM	–	–	–	–	–	–	–	–	MIC (Serratia marcescens): > 880 µM; MIC (Salmonella typhimurium): > 880 µM; MIC (Klebsiella pneumoniae): > 880 µM; MIC (Yersinia enterocolitica): > 880 µM; MIC (Acinetobacter baumannii): > 880 µM; MIC (Pseudomonas aeruginosa): > 880 µM; MIC (Burkholderia cepacia): > 880 µM; MIC (Enterobacter cloacae): > 880 µM
CCCCCCCCCCO [D0, 1-Decanol, reference compound]	> 880 µM	> 880 µM	> 880 µM	> 880 µM	> 880 µM	> 880 µM	> 880 µM	> 880 µM	> 880 µM	> 880 µM	> 880 µM	> 880 µM	> 880 µM	> 880 µM	> 880 µM	> 880 µM	> 880 µM	> 880 µM	> 880 µM	> 880 µM	MIC (Enterococcus faecalis; 22 hrs): > 880 µM; MIC [3]: > 880 µM; MIC (Steptococcus pyogenes; 22 h, 22 hrs): > 880 µM; MIC (Escherichia coli; 22 hrs): > 880 µM; MIC ([2]; 22 hrs): > 880 µM
CCCCCCCCCCOCCO [D1, Ethylene Glycol Monodecyl Ether, reference compound]	> 880 µM	> 880 µM	> 880 µM	> 880 µM	> 880 µM	> 880 µM	> 880 µM	> 880 µM	> 880 µM	> 880 µM	> 880 µM	> 880 µM	> 880 µM	> 880 µM	> 880 µM	> 880 µM	> 880 µM	> 880 µM	> 880 µM	> 880 µM	MIC (Enterococcus faecalis; 22 hrs): > 880 µM; MIC [3]: > 880 µM; MIC (Steptococcus pyogenes; 22 h, 22 hrs): > 880 µM; MIC (Escherichia coli; 22 hrs): > 880 µM; MIC ([2]; 22 hrs): > 880 µM
CCCCCCCCCCCCCCOCCOCCOCCOCCO [M4, Tetraethylene Glycol Monotetradecyl Ether]	220 µM (≈ 85.9 µg/mL)	> 880 µM	> 880 µM	55 µM (≈ 21.5 µg/mL)	110 µM (≈ 43 µg/mL)	> 880 µM	> 880 µM	> 880 µM	220 µM (≈ 85.9 µg/mL)	27.5 µM (≈ 10.7 µg/mL)	> 880 µM	110 µM (≈ 43 µg/mL)	220 µM (≈ 85.9 µg/mL)	440 µM (≈ 172 µg/mL)	> 880 µM	55 µM (≈ 21.5 µg/mL)	110 µM (≈ 43 µg/mL)	> 880 µM	> 880 µM	> 880 µM	MIC (Enterococcus faecalis; 22 hrs): 220 µM (≈ 85.9 µg/mL); MIC [3]: < 220 µM; MIC (Steptococcus pyogenes; 22 h, 22 hrs): 27.5 µM (≈ 10.7 µg/mL); MIC (Escherichia coli; 22 hrs): > 880 µM; MIC ([2]; 22 hrs): 55 µM (≈ 21.5 µg/mL)
